Source: patent US10112911B2, “Substituted cyanoguanidines as oral anti-virals” (Abbvie Inc, priority 2012, dated 2018)
Counter-ions that a name gives are not always drawn. Like-named read-outs stand apart in the source and are kept apart here.

Test system: RSV (Group A, Long Strain)
Test: Cytopathetic effect (CPE) protection antiviral assay, MTT readout
Type: cell-based
Conditions: human respiratory syncytial virus, HEp-2, 96 h, read-out: RSV EC50
Method: HEp-2 cells and RSV (Group A, Long Strain) were obtained from the American Type Culture Collection (Manassas, Va.).
A cytopathetic effect (CPE) protection assay was performed to determine the ability of a compound to protect the cells from viral infection and thus the CPE induced by viral infection. 96-Well plates were first seeded with […] per well in Dulbecco's modified Eagle's medium (DMEM) containing 10% fetal bovine serum (FBS). One day after the cells were seeded, they were preincubated with serial dilutions of compounds prepared in 100 μL assay medium (DMEM mixed with F12 medium at a 1:1 ratio, supplemented with 2% FBS and 1 mM sodium pyruvate) for 1 hour at 37° C. 100 μL of assay medium containing 0.2 multiplicity of infection (MOI) of RSV was then added to each well of cells. In addition to wells containing infected cells incubated with compounds, each plate also contained replicates of two kinds of controls: (1) Virus control contained cells infected with 0.2 MOI of RSV in assay medium, (2) Uninfected cell control contained cells incubated with assay medium only. After 4 days of incubation at 37° C., the viability of cells was assessed using MTT (Thiazolyl blue tetrazolium bromide, Sigma). A stock solution of MTT, at a concentration of 4 mg/mL in phosphate-buffered saline, was added to all wells at 25 μL per well. Plates were further incubated for 4 hours, and each well was then treated with 50 μL of a solution containing 20% sodium dodecyl sulfate (SDS) and 0.02 N HCl. After an overnight incubation, the plates were measured on a BioTek® microtiter plate reader at wavelengths of 570 nm and 650 nm. The MTT detection is based on the fact that viable (uninfected) cells can reduce the tetrazolium salts into colored formazan products, which can then be quantitated by spectrometry. Based on the spectrometric absorbance of each sample, the percent of protection from CPE, which is an indicator of protection from viral infection, can be calculated for each compound and the 50% effective concentrations (EC50) can be calculated using a nonlinear regression curve fitting equation provided by the GraphPad Prism® 4 software.
Compounds were tested to determine both their antiviral and toxicity to determine their therapeutic window. Determination of the EC50 and TD50 of these active compounds were repeated one additional time to confirm the window.

[1] = HEp-2 cells, 0.2 MOI RSV, 4 days incubation, protection from CPE (Table 1)

| SMILES | EC50 [1] [µM] | EC50 [µM] |
| --- | --- | --- |
| Cc1ccccc1N/C(=N/C#N)N1CCN(c2cnc3ccccc3n2)C[C@H]1C(C)C [Example 1.12, (2R)—N′-cyano-2-isopropyl-N-(2-methylphenyl)-4-(quinoxalin-2-yl)piperazine-1-carboximidamide trifluoroacetate] | – | > 32 |
| Cc1ccccc1NC(=NC#N)N1CCN(c2ccc3nccnc3n2)CC1C(C)C (centres unmarked) [Example 1.65, N′-cyano-2-isopropyl-N-(2-methylphenyl)-4-(pyrido[2,3-b]pyrazin-6-yl)piperazine-1-carboximidamide] | 5.9 | – |
| Cc1ccccc1NC(=NC#N)N1CCN(c2ccc3cccnc3n2)CC1C(C)C (centres unmarked) [Example 1.66, N′-cyano-2-isopropyl-N-(2-methylphenyl)-4-(1,8-naphthyridin-2-yl)piperazine-1-carboximidamide] | 1.5 | – |
| Cc1ccccc1N/C(=N/C#N)N1CCN(c2cnc3ccccc3n2)CC1CC(C)C (centres unmarked) [Example 1.37, N′-cyano-2-isobutyl-N-(2-methylphenyl)-4-(quinoxalin-2-yl)piperazine-1-carboximidamide] | 0.4 | – |
| Cc1ccccc1NC(=NC#N)N1CCN(c2cnc3ccccc3n2)CCC1C(C)C (centres unmarked) [Example 3.1, N′-cyano-7-isopropyl-N-(2-methylphenyl)-4-(quinoxalin-2-yl)-1,4-diazepane-1-carboximidamide] | – | > 32 |
| Cc1ccccc1N/C(=N/C#N)N1CCN(c2cnc3cc(C(F)(F)F)ccc3n2)CC1C(C)C (centres unmarked) [Example 1.57, N′-cyano-2-isopropyl-N-(2-methylphenyl)-4-[6-(trifluoromethyl)quinoxalin-2-yl]piperazine-1-carboximidamide] | 0.29 | – |
| Cc1ccccc1N/C(=N/C#N)N1CCN(c2cnc3ccc(F)cc3n2)CC1C(C)C (centres unmarked) [Example 1.60, N′-cyano-4-(7-fluoroquinoxalin-2-yl)-2-isopropyl-N-(2-methylphenyl)piperazine-1-carboximidamide] | 1.05 | – |
| Cc1ccc(F)cc1N/C(=N/C#N)N1CCN(c2cnc3ccccc3n2)CC1C(C)C (centres unmarked) [Example 1.31, N′-cyano-N-(5-fluoro-2-methylphenyl)-2-isopropyl-4-(quinoxalin-2-yl)piperazine-1-carboximidamide] | 2 | – |
| Cc1cccc(C)c1N/C(=N/C#N)N1CCN(c2cnc3ccccc3n2)CC1C(C)C (centres unmarked) [Example 1.17, N′-cyano-N-(2,6-dimethylphenyl)-2-isopropyl-4-(quinoxalin-2-yl)piperazine-1-carboximidamide] | 0.54 | – |
| CC(C)C1CN(c2cnc3ccccc3n2)CCN1/C(=N\C#N)Nc1ccc2c(c1)OCO2 (centres unmarked) [Example 1.14, N-(1,3-benzodioxol-5-yl)-N′-cyano-2-isopropyl-4-(quinoxalin-2-yl)piperazine-1-carboximidamide] | > 10 | – |
| CC(C)C1CN(c2cnc3ccccc3n2)CCN1/C(=N\C#N)Nc1ccc(F)cc1 (centres unmarked) [Example 1.23, N′-cyano-N-(4-fluorophenyl)-2-isopropyl-4-(quinoxalin-2-yl)piperazine-1-carboximidamide] | > 10 | – |
| CC(C)c1ccccc1N/C(=N/C#N)N1CCN(c2cnc3ccccc3n2)CC1C(C)C (centres unmarked) [Example 1.26, N′-cyano-2-isopropyl-N-(2-isopropylphenyl)-4-(quinoxalin-2-yl)piperazine-1-carboximidamide] | > 10 | – |
| Cc1ccccc1N/C(=N/C#N)N1CCN(c2cnc3ccccc3n2)CC1C1CCCCC1 (centres unmarked) [Example 1.48, N′-cyano-2-cyclohexyl-N-(2-methylphenyl)-4-(quinoxalin-2-yl)piperazine-1-carboximidamide] | 1.34 | – |
| CC(C)C1CN(c2cnc3ccccc3n2)CCN1/C(=N\C#N)Nc1cccc(C(F)(F)F)c1 (centres unmarked) [Example 1.25, N′-cyano-2-isopropyl-4-(quinoxalin-2-yl)-N-[3-(trifluoromethyl)phenyl]piperazine-1-carboximidamide] | > 7.29 | – |
| CC(C)C1CN(c2cnc3ccccc3n2)CCN1/C(=N\C#N)Nc1ccc(C(F)(F)F)cc1 (centres unmarked) [Example 1.24, N′-cyano-2-isopropyl-4-(quinoxalin-2-yl)-N-[4-(trifluoromethyl)phenyl]piperazine-1-carboximidamide] | > 6.68 | – |
| Cc1cccc(F)c1N/C(=N/C#N)N1CCN(c2cnc3ccccc3n2)CC1C(C)C (centres unmarked) [Example 1.33, N′-cyano-N-(2-fluoro-6-methylphenyl)-2-isopropyl-4-(quinoxalin-2-yl)piperazine-1-carboximidamide] | 0.3 | – |

Second part, led by results:

| EC50 [1] [µM] | SMILES | EC50 [µM] |
| --- | --- | --- |
| > 10 | Cc1ccccc1N/C(=N/C#N)N1CCN(c2nc3ccccc3nc2C(F)(F)F)CC1C(C)C (centres unmarked) [Example 1.53, N′-cyano-2-isopropyl-N-(2-methylphenyl)-4-[3-(trifluoromethyl)quinoxalin-2-yl]piperazine-1-carboximidamide] | – |
| > 10 | CC(C)CC1CN(c2cnc3ccccc3n2)CCN1/C(=N\C#N)Nc1cccc(F)c1 (centres unmarked) [Example 1.40, N′-cyano-N-(3-fluorophenyl)-2-isobutyl-4-(quinoxalin-2-yl)piperazine-1-carboximidamide] | – |
| > 3.1 | Cc1cc(F)c(F)cc1N/C(=N/C#N)N1CCN(c2cnc3ccccc3n2)CC1C(C)C (centres unmarked) [Example 1.34, N′-cyano-N-(4,5-difluoro-2-methylphenyl)-2-isopropyl-4-(quinoxalin-2-yl)piperazine-1-carboximidamide] | – |
| > 6.6 | Cc1ccccc1N/C(=N/C#N)N1CCN(c2ccc3ccccc3n2)CC1C(C)C (centres unmarked) [Example 1.61, N′-cyano-2-isopropyl-N-(2-methylphenyl)-4-(quinolin-2-yl)piperazine-1-carboximidamide] | – |
| > 10 | Cc1ncccc1N/C(=N/C#N)N1CCN(c2cnc3ccccc3n2)CC1C(C)C (centres unmarked) [Example 1.73, N′-cyano-2-isopropyl-N-(2-methylpyridin-3-yl)-4-(quinoxalin-2-yl)piperazine-1-carboximidamide] | – |
| > 10 | CC(C)CC1CN(c2cnc3ccccc3n2)CCN1/C(=N\C#N)Nc1ccccc1F (centres unmarked) [Example 1.39, N′-cyano-N-(2-fluorophenyl)-2-isobutyl-4-(quinoxalin-2-yl)piperazine-1-carboximidamide] | – |
| > 61.7 | Cc1ccccc1NC(=NC#N)N1CCN(c2cnc3ccccc3n2)CC1 [Example 1.74, N′-cyano-N-(2-methylphenyl)-4-(quinoxalin-2-yl)piperazine-1-carboximidamide] | – |
| > 3.2 | Cc1cc2ncc(N3CCN(/C(=N\C#N)Nc4ccccc4C)C(C(C)C)C3)nc2cc1C (centres unmarked) [Example 1.50, N′-cyano-4-(6,7-dimethylquinoxalin-2-yl)-2-isopropyl-N-(2-methylphenyl)piperazine-1-carboximidamide] | – |
| > 10 | Cc1ccccc1N/C(=N/C#N)N1CCN(c2cnc3ccccc3n2)CC12CCC2 [Example 1.43, N′-cyano-N-(2-methylphenyl)-8-(quinoxalin-2-yl)-5,8-diazaspiro[3.5]nonane-5-carboximidamide] | – |
| > 10 | Cc1ccc2ccc(N3CCN(C(=NC#N)Nc4ccccc4C)C(C(C)C)C3)nc2n1 (centres unmarked) [Example 1.68, N′-cyano-2-isopropyl-4-(7-methyl-1,8-naphthyridin-2-yl)-N-(2-methylphenyl)piperazine-1-carboximidamide] | – |
| > 10 | Cc1ccccc1N/C(=N/C#N)N1CCN(c2cnc3ccccc3n2)CC1C (centres unmarked) [Example 1.42, N′-cyano-2-methyl-N-(2-methylphenyl)-4-(quinoxalin-2-yl)piperazine-1-carboximidamide] | – |
| 2.99 | Cc1ccccc1NC(=NC#N)N1CCN(c2nc3ccccc3n2C)CC1C(C)C (centres unmarked) [Example 1.69, N′-cyano-2-isopropyl-4-(1-methyl-1H-benzimidazol-2-yl)-N-(2-methylphenyl)piperazine-1-carboximidamide] | – |
| > 10 | Cc1ccccc1NC(=NC#N)N1CCN(c2cnc3ccccc3n2)C(C(C)C)C1 (centres unmarked) [Example 1.70, N′-cyano-3-isopropyl-N-(2-methylphenyl)-4-(quinoxalin-2-yl)piperazine-1-carboximidamide] | – |
| > 3.1 | Cc1cccc(N/C(=N/C#N)N2CCN(c3cnc4ccccc4n3)CC2CC(C)C)c1 (centres unmarked) [Example 1.38, N′-cyano-2-isobutyl-N-(3-methylphenyl)-4-(quinoxalin-2-yl)piperazine-1-carboximidamide] | – |
| > 6.6 | CC(C)C1CN(c2cnc3ccccc3n2)CCN1/C(=N\C#N)Nc1cc(C(C)(C)C)nn1C (centres unmarked) [Example 1.36, N-(3-tert-butyl-1-methyl-1H-pyrazol-5-yl)-N′-cyano-2-isopropyl-4-(quinoxalin-2-yl)piperazine-1-carboximidamide] | – |
| > 10 | Cc1ccccc1N/C(=N/C#N)N1CCN(c2cnc3ccccc3n2)CC12CC2 [Example 1.45, N′-cyano-N-(2-methylphenyl)-7-(quinoxalin-2-yl)-4,7-diazaspiro[2.5]octane-4-carboximidamide] | – |
